From a melting point compilation (Tetko et al.; mined from patent text by program, amines drawn as free bases though some values may be those of a salt)

Compound	melting point
CC(=O)c1ccc(S)cc1	71 °C
COC(=O)CCCOc1ccc2ccc(O)cc2c1	122 to 125 °C
N#Cc1cccc(CNc2cc(C(N)=O)c([N+](=O)[O-])cc2[N+](=O)[O-])c1	228 to 230 °C
COC[C@H]1CCCN1NC(=O)c1ccc(-c2[nH]nc3c2C(=O)c2c(NC(=O)NN4CCOCC4)cccc2-3)s1	266 to 267 °C
Nc1c(Cl)cc(-c2nn(C3CCN(CCCC(F)(F)F)CC3)c(=O)o2)c2c1OCCO2	188 °C
NS(=O)(=O)c1ncccc1SCCCF	85 to 86 °C
CC(C)c1csc2[nH]cc(C#N)c(=O)c12	285 °C
COc1cc2ccn3c(=O)c(C(=O)O)cnc3c2cc1OC	298 to 301 °C
CC(SC1COC(c2ccc(C(=O)Nc3ccc(C(F)(F)F)cc3)cc2)OC1)C(O)(Cn1cncn1)c1ccc(F)cc1F (centres undefined)	210 °C
COC(=O)Nc1ccc(NC(=O)CN(C)C)c([N+](=O)[O-])c1	186 to 189 °C
CCc1cc(C=Cc2ccccc2O)on1	175 to 176 °C
Cc1nn(-c2cc(O)c(Cl)cc2F)c(C)c1C	158 to 160 °C
CCc1noc(-c2cn(-c3ccc(Cl)cn3)cn2)n1	224 to 226 °C
O=C(c1ccc(C2CCCCC2)cc1)N1Cc2cccn2Cc2ncccc21	150 to 152 °C
CN(C)C=C(C=C(C#N)C(=O)OC(C)(C)C)c1cccnc1	161 to 163 °C
CN1CCN(c2ccc(C#N)c3ccccc23)CC1	128 to 129 °C
Cc1cn(NCc2cc(C(C)(C)C)c(O)c(C(C)(C)C)c2)cn1	150 to 151 °C
CCOC(=O)CC[C@H](NC(=O)c1ccc(C(COC2CCCCO2)CC2CNc3nc(NC(=O)C(C)(C)C)nc(O)c3C2)cc1)C(=O)OCC (some centres undefined)	183 to 186 °C
O=C(O)Cc1c(C(=O)c2ccc(O)cc2)[nH]c2cc(Cl)ccc12	231 to 234 °C
O=[N+]([O-])c1cc(Cc2cc(Cl)ccc2O)c(O)c(Cc2cc(Cl)ccc2O)c1	220 °C
COCCCNC(=O)OCCCc1ccc(OCCOC)cc1Oc1ncc(C(F)(F)F)cc1Cl	83.5 to 85 °C
CN1Cc2c(F)ncn2-c2ccccc2C1=O	171 to 172 °C
O=C(Cn1nnnc1-c1ccsc1)OCCCCCO	39 to 42 °C
C=CCc1cc2c(c(CC=C)c1O)CCC(=O)N2Cc1ccc(C(=O)O)cc1	242 to 246 °C

Compound	melting point
Cc1noc2ccc([N+](=O)[O-])cc12	84.5 to 86.5 °C
CC(=O)CCCSc1cc(C(C)(C)C)c(O)c(C(C)(C)C)c1	65 to 67 °C
CC1CCc2c(N3CCC(NC(=O)OC(C)(C)C)C3)c(F)cc3c(=O)n(N)c(=O)n1c23 (centres undefined)	98 to 100 °C
CC1(C)OC(C=Cc2cccc(C#N)c2)=CC1=O	155 to 157 °C
CC(C)CCC[C@H](NC(=O)[C@@H](N)Cc1c[nH]cn1)[C@@H](O)C1CCCCC1	126 to 130 °C
O=C(Nc1cc(C2OCCCO2)ccc1O)c1ccccc1OCCCCc1ccccc1	122 to 123 °C
O=C(NCCC12CC3CC(CC(C3)C1)C2)c1cccc(Cl)c1Cl	158 to 159 °C
CC(C)(C)OC(=O)NC1CNC(=O)C12CC2 (centres undefined)	178 to 181 °C
Cc1cc(C)c(C(C#N)c2nc(C)nc(Cl)c2C)c(C)c1 (centres undefined)	100 to 102 °C
CNC(=N[N+](=O)[O-])N(C)Cc1ccc(Cl)nc1	136 to 137 °C
CCCCCCCCCCNc1nc(NCC(O)C2CC(C)(C)NC(C)(C)C2)nc(NCC(O)C2CC(C)(C)NC(C)(C)C2)n1 (centres undefined)	106 to 107 °C
N#CC1=C(n2cccc2)Oc2c(ccc3cc(C(=O)O)c(O)cc23)C1c1cccc([N+](=O)[O-])c1 (centres undefined)	> 230 °C
O=[N+]([O-])C=Cc1cccc2[nH]ccc12	152 to 154 °C
CCCCOc1c(CNC(=O)OC(C)(C)C)n(CC2CC2)c(=O)c2ccc(C=O)cc12	151 to 152 °C
CC(=O)Nc1cnc(-c2cc(Cl)cc(Cl)c2Cl)c(N)n1	200 to 203 °C
C#CCOc1ccc2ccc(=S)oc2c1	97 to 101 °C
N#Cc1ncn2c1[C@@H]1CCCN1C(=O)c1c(Br)cccc1-2	253 to 254 °C
Oc1ccc(-c2ccc(F)cc2F)cc1C12CC3CC(CC(C3)C1)C2	146 to 148 °C
COc1ccc(Cl)c(Nc2c(C#N)cnc3c2C=C2N=CN=C2C3)c1	296 to 298 °C
O=C(Nc1cccc(-c2cnc(-c3cccc(NC(=O)c4ccccn4)c3)[nH]2)c1)c1ccccn1	208 to 210 °C
Fc1ccc(-c2nc(CI)co2)cc1	100 to 102 °C
c1ccc2c(c1)CCONC2	190 to 192 °C
CCOC(=O)NC(=O)C(C#N)=CNc1ccc(Cl)cc1	177 to 183 °C

Second part, the molecule after the results:

melting point	Compound
52 to 55 °C	Cc1cc(Oc2ccc(Cl)cc2Cl)ccc1C#N
92 to 93 °C	CCOC(=O)c1c(O)c2ccc(F)cc2c(=O)n1CC(C)(C)C
235 to 240 °C	CCOC(=O)c1ccc(-c2nc3cc4c(cc3[nH]2)NC(=O)C4(C)C)c(OC)c1
> 260 °C	O=C1c2ccccc2C(=O)c2oc(-c3ccc(Cl)cc3)nc21
79 to 81 °C	Cc1onc(-c2ccccc2Cl)c1CCC(=O)O
91 to 92 °C	CCOC(=O)c1c(C(F)(F)F)nc(C(F)(F)Cl)c(C(=O)OC)c1Nc1ccccc1
192 to 195 °C	CN1C(=O)CC[C@]2(C)c3ccc(CC(=O)Nc4ccccc4)cc3CC[C@@H]12
134 to 136 °C	CCOc1ccnc(N2CCN(C(=O)c3ccccc3C=O)CC2)n1
143 °C	CCCc1c(OCCCSc2ccc(CC(=O)O)cc2Cl)ccc2c(-c3ccccc3)coc12
192 to 193 °C	CS(=O)(=O)c1ccc(-n2cncc2-c2ccc(Cl)cc2)cc1
155 to 157 °C	CCCCNC(=S)Nc1cccc(-c2ccnc3c(C(=O)c4cccs4)cnn23)c1
117 to 119 °C	Cc1ccccc1NC(=O)c1ccccc1[Si](C)(C)C
149 to 152 °C	CC(C)Oc1ccccc1Oc1ccc(NC(=O)N2CCc3ccccc3CC2)cn1
177 to 178 °C	COc1ccc2c(c1)c(C(C)C(=O)O)cc(=O)n2-c1ccc(Cl)cc1 (centres undefined)
54 to 56 °C	COC(=O)[C@@H](NC(=O)OCc1ccccc1)C(C)C
113 to 115 °C	CCC(=O)NCCc1cc(-c2cccc(C(=O)OC)c2)cc2ccc(OC)cc12
230 to 232 °C	Cc1cc(C)c(-c2cn(C)c3c(O)ncnc23)c(C)c1
110 °C	COC(=O)c1ccccc1S(=O)(=O)NCC#N
95.5 to 97 °C	CCCCC1N=CC(C=O)(Cc2ccc(C(=O)OC)c3ccccc23)N1 (centres undefined)
180 to 181 °C	COc1ccc(S(=O)(=O)N2CCc3cccc(-c4ccc(C(F)(F)F)cc4)c32)cc1
253 to 255 °C	O=C(Cc1ccccc1)Nc1cnc2ccccc2c1O
215 to 217 °C	O=C1COc2ccc(C3=Cc4ccc(NCCCO)cc4OC3c3ccccc3)cc2N1 (centres undefined)
124 to 126 °C	C[C@H](O)[C@H](CO)N(Cc1ccc(C#N)cc1)S(=O)(=O)c1ccc(Cl)cc1
188 to 190 °C	Cc1cccc(C)c1N(C(C)CN1C(=O)c2ccccc2C1=O)S(C)(=O)=O (centres undefined)
144 to 145 °C	CC(C)C(=O)C(O)(Cc1ccc(Cl)cc1Cl)c1cccnc1 (centres undefined)
180 to 182 °C	O=C(O)COc1cccc2c1CCc1sc(SCc3ccccc3)nc1-2

melting point	Compound
127 to 130 °C	COC(=O)CCc1cc2cc(F)c(Cl)cc2n1S(=O)(=O)c1ccccc1
184 to 185 °C	Cc1nc2cccc3n(CCCNS(C)(=O)=O)c(=O)c1n23
137 to 138 °C	O=S(=O)(c1ccc(C(F)(F)F)cc1)N1c2cc(F)c(F)cc2-c2[nH]ncc2[C@H]1C1CC1
167 to 169 °C	CCOC(=O)COc1cc(OC)cc2c1c1c(n2Cc2ccccc2)CCCC1C(N)=O (centres undefined)
118 to 120 °C	CC(O)c1ccc(NS(C)(=O)=O)c(Sc2ccc(F)cc2F)c1 (centres undefined)
155 to 156 °C	O=C(NCc1ccccn1)Nc1cc(N2CC(COc3ccccc3)OC2=O)ccn1 (centres undefined)
131 to 134 °C	CCCCCCS(=O)(=O)c1nn2c(=O)cc(-c3ccccc3)nc2s1
168 to 173 °C	CC(C)(C)NC(=O)c1cnc(Cl)cc1-c1ccc(F)cc1
161 to 163 °C	Cc1ccccc1OS(=O)(=O)c1ccc(N2CCCNC2=O)cc1
220 to 222 °C	O=C(O)Cc1c(C(=O)c2ccc(OCc3ccccc3)cc2)[nH]c2cc(Cl)ccc12
197 to 199 °C	CC(C)Cn1c(CCCCNC(=O)Nc2ccccc2)nc2c(N)nc3c(c21)CCCC3
86 to 86.5 °C	CCOC(=O)C(Cc1ccccc1CCBr)(NC(C)=O)C(=O)OCC
220 to 221 °C	CS(=O)(=O)N(c1ccc(CN2N=C(c3ccc(Cl)cc3)c3ccccc3-n3cnnc32)cc1)S(C)(=O)=O
152 to 153 °C	CSc1ccc2c(=O)n([C@H](C)[C@](O)(Cn3cncn3)c3ccc(F)cc3F)cnc2c1
138 °C	CC(C)(C)C(=O)Nc1ncccc1CNC1CCN(Cc2ccccc2)CC1
171 to 172 °C	CCCCc1ncc(/C=C(\Cc2ccc(N(C)C)cc2)C(=O)O)n1Cc1ccccc1Cl
140 to 141 °C	O=C(NCCO)c1cccc(-c2ccc3[nH]cc(-c4ccc(Cl)cc4Cl)c3c2)c1
258 to 265 °C	CN1C(C(=O)Nc2ccc(O)c(=O)cc2)=C(O)c2ccccc2S1(=O)=O
76 to 85 °C	COc1cc(N2CCN(C[C@H](C)O)CC2)ccc1Nc1ncc2ccc(-c3ccccc3OC)n2n1
150 to 151 °C	CCOC(=O)/C=C/c1nc(COc2ccc(COc3nn(-c4ccccc4)cc3C=O)cc2OC)c(C)o1
156 °C	Cc1cc(-c2ccc(Cl)cc2)cnc1N
70 to 71 °C	CCOC(=O)Cc1ccc(C(=O)c2ccc(C)cc2)n1C
162 to 163 °C	CCCCc1nc2ccccc2n1Cc1ccc(-c2ccccc2CO)cc1
121 °C	CC1CC(C)C(C)(C)c2ccc(-c3cccc(-c4ccc(C(=O)O)cc4)c3O)cc21 (centres undefined)
185 to 188 °C	CC1=C(C(=O)CS(=O)(=O)NC(C)C)C(c2cccc([N+](=O)[O-])c2)C(C(=O)OCCO)=C(C)N1 (centres undefined)
135 to 140 °C	COc1ccc2nccc([C@@H]3CN(CCCNS(=O)(=O)c4ccc5c(c4)NC(=O)CS5)C(=O)O3)c2c1
